Test results from patent US12077503B2, “Substituted cyclic amides and their use as herbicides” (FMC CORPORATION, priority 2015, dated 2024).

Columns and labels:
Format in all cases: in vivo
[1] = system: barnyardgrass (Echinochloa crus-galli); experiment: Test A postemergence; details: for Barnyardgrass plant response rating: 125 g ai/ha, postemergence, visual injury rating on 0 to 100 scale (0 no effect, 100 complete control), approx. 10 d; for Plant response rating, Barnyardgrass: Postemergence, 500 g ai/ha, 0 to 100 scale where 0 is no effect and 100 is complete control
In short: (§1)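 Preemergence directed soil spray on seeded pots, or postemergence application to plants 2–10 cm, one- to two-leaf. Solvent mixture non-phytotoxic, with surfactant. Scored ~10 d later, visually, 0–100 vs untreated.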

[2] = system: Galium (catchweed bedstraw, Galium aparine); experiment: Test A postemergence; details: for Galium plant response rating: 125 g ai/ha, postemergence, visual injury rating on 0 to 100 scale (0 no effect, 100 complete control), approx. 10 d; for Plant response rating, Galium: Postemergence, 500 g ai/ha, 0 to 100 scale where 0 is no effect and 100 is complete control
In short: as §1

[3] = system: ryegrass, Italian (Italian ryegrass, Lolium multiflorum); experiment: Test A postemergence; details: for Ryegrass, Italian plant response rating: 125 g ai/ha, postemergence, visual injury rating on 0 to 100 scale (0 no effect, 100 complete control), approx. 10 d; for Plant response rating, Ryegrass, Italian: Postemergence, 500 g ai/ha, 0 to 100 scale where 0 is no effect and 100 is complete control
In short: as §1

[4] = system: giant foxtail (Setaria faberii); experiment: Test A postemergence; details: for Foxtail, Giant plant response rating: 125 g ai/ha, postemergence, visual injury rating on 0 to 100 scale (0 no effect, 100 complete control), approx. 10 d; for Plant response rating, Foxtail, Giant: Postemergence, 500 g ai/ha, 0 to 100 scale where 0 is no effect and 100 is complete control
In short: as §1

corn (Zea mays) = experiment: Test A postemergence; details: for Corn plant response rating: 125 g ai/ha, postemergence, visual injury rating on 0 to 100 scale (0 no effect, 100 complete control), approx. 10 d; for Plant response rating, Corn: Postemergence, 500 g ai/ha, 0 to 100 scale where 0 is no effect and 100 is complete control
In short: as §1

[5] = system: ragweed (common ragweed, Ambrosia elatior); experiment: Test A postemergence; details: for Ragweed plant response rating: 125 g ai/ha, postemergence, visual injury rating on 0 to 100 scale (0 no effect, 100 complete control), approx. 10 d; for Plant response rating, Ragweed: Postemergence, 500 g ai/ha, 0 to 100 scale where 0 is no effect and 100 is complete control
In short: as §1

[6] = system: blackgrass (Alopecurus myosuroides); experiment: Test A postemergence; details: for Blackgrass plant response rating: 125 g ai/ha, postemergence, visual injury rating on 0 to 100 scale (0 no effect, 100 complete control), approx. 10 d; for Plant response rating, Blackgrass: Postemergence, 500 g ai/ha, 0 to 100 scale where 0 is no effect and 100 is complete control
In short: as §1

[7] = system: wheat (Triticum aestivum); experiment: Test A postemergence; details: for Wheat plant response rating: 125 g ai/ha, postemergence, visual injury rating on 0 to 100 scale (0 no effect, 100 complete control), approx. 10 d; for Plant response rating, Wheat: Postemergence, 500 g ai/ha, 0 to 100 scale where 0 is no effect and 100 is complete control
In short: as §1

[8] = system: pigweed (Amaranthus retroflexus); experiment: Test A postemergence; details: for Pigweed plant response rating: 125 g ai/ha, postemergence, visual injury rating on 0 to 100 scale (0 no effect, 100 complete control), approx. 10 d; for Plant response rating, Pigweed: Postemergence, 500 g ai/ha, 0 to 100 scale where 0 is no effect and 100 is complete control
In short: as §1

Kochia (Kochia scoparia) [9] = experiment: Test A postemergence; details: for Kochia plant response rating: 125 g ai/ha, postemergence, visual injury rating on 0 to 100 scale (0 no effect, 100 complete control), approx. 10 d; for Plant response rating, Kochia: Postemergence, 500 g ai/ha, 0 to 100 scale where 0 is no effect and 100 is complete control
In short: as §1

[10] = system: barnyardgrass (Echinochloa crus-galli); experiment: Test A preemergence; details: Preemergence; for Plant response rating, Barnyardgrass: 125 g ai/ha, visual injury after approximately 10 d, 0 to 100 scale where 0 is no effect and 100 is complete control; for Barnyardgrass plant response rating (0 to 100 scale, 0 is no effect, 100 is complete control): 500 g ai/ha, visual injury approx. 10 d
In short: as §1

[11] = system: ryegrass, Italian (Italian ryegrass, Lolium multiflorum); experiment: Test A preemergence; details: Preemergence; for Plant response rating, Ryegrass, Italian: 125 g ai/ha, visual injury after approximately 10 d, 0 to 100 scale where 0 is no effect and 100 is complete control; for Ryegrass, Italian plant response rating (0 to 100 scale, 0 is no effect, 100 is complete control): 500 g ai/ha, visual injury approx. 10 d
In short: as §1

[12] = system: giant foxtail (Setaria faberii); experiment: Test A preemergence; details: Preemergence; for Plant response rating, Foxtail, Giant: 125 g ai/ha, visual injury after approximately 10 d, 0 to 100 scale where 0 is no effect and 100 is complete control; for Foxtail, Giant plant response rating (0 to 100 scale, 0 is no effect, 100 is complete control): 500 g ai/ha, visual injury approx. 10 d
In short: as §1

[13] = system: ragweed (common ragweed, Ambrosia elatior); experiment: Test A preemergence; details: Preemergence; for Plant response rating, Ragweed: 125 g ai/ha, visual injury after approximately 10 d, 0 to 100 scale where 0 is no effect and 100 is complete control; for Ragweed plant response rating (0 to 100 scale, 0 is no effect, 100 is complete control): 500 g ai/ha, visual injury approx. 10 d
In short: as §1

[14] = system: pigweed (Amaranthus retroflexus); experiment: Test A preemergence; details: Preemergence; for Plant response rating, Pigweed: 125 g ai/ha, visual injury after approximately 10 d, 0 to 100 scale where 0 is no effect and 100 is complete control; for Pigweed plant response rating (0 to 100 scale, 0 is no effect, 100 is complete control): 500 g ai/ha, visual injury approx. 10 d
Kochia (Kochia scoparia) [15] = experiment: Test A preemergence; details: Preemergence; for Plant response rating, Kochia: 125 g ai/ha, visual injury after approximately 10 d, 0 to 100 scale where 0 is no effect and 100 is complete control; for Kochia plant response rating (0 to 100 scale, 0 is no effect, 100 is complete control): 500 g ai/ha, visual injury approx. 10 d
In short: as §1

[16] = system: barnyardgrass (Echinochloa crus-galli); experiment: Test B flooded paddy test; details: Flood, 250 g ai/ha; 0 to 100 scale where 0 is no effect and 100 is complete control; 13 to 15 d
In short: (§2)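 Greenhouse paddy pots with 2-leaf stage plants received compound by direct addition to floodwater 3 cm deep, kept at that level. Scored visually at 13–15 d versus controls (0 no effect; 100 complete control).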

[17] = system: ducksalad (Heteranthera limosa); experiment: Test B flooded paddy test; details: Flood, 250 g ai/ha; 0 to 100 scale where 0 is no effect and 100 is complete control; 13 to 15 d
In short: as §2

rice (Oryra sativa) = experiment: Test B flooded paddy test; details: Flood, 250 g ai/ha; 0 to 100 scale where 0 is no effect and 100 is complete control; 13 to 15 d
In short: as §2

[18] = system: sedge, umbrella (small-flower umbrella sedge, Cyperus difformis); experiment: Test B flooded paddy test; details: Flood, 250 g ai/ha; 0 to 100 scale where 0 is no effect and 100 is complete control; 13 to 15 d
In short: as §2

Compound | Barnyardgrass plant response rating [1] | Plant response rating, Barnyardgrass [1] | Galium plant response rating [2] | Plant response rating, Galium [2] | Ryegrass, Italian plant response rating [3] | Plant response rating, Ryegrass, Italian [3] | Foxtail, Giant plant response rating [4] | Plant response rating, Foxtail, Giant [4] | Corn plant response rating (corn (Zea mays)) | Plant response rating, Corn (corn (Zea mays)) | Ragweed plant response rating [5] | Plant response rating, Ragweed [5] | Blackgrass plant response rating [6] | Plant response rating, Blackgrass [6] | Wheat plant response rating [7] | Plant response rating, Wheat [7] | Pigweed plant response rating [8] | Plant response rating, Pigweed [8] | Kochia plant response rating (Kochia (Kochia scoparia) [9]) | Plant response rating, Kochia (Kochia (Kochia scoparia) [9]) | also measured
O=C1NCC(c2ccnc(C(F)(F)F)c2)C1C(=O)Nc1ccccc1F (racemic) [Compound 513] | 80 | 90 | 0 | 40 | 0 | 30 | 80 | 80 | 20 | 60 | 10 | 20 | 20 | 40 | 0 | 30 | 30 | 60 | 20 | 50 | Plant response rating, Barnyardgrass [10]: 40; Barnyardgrass plant response rating (0 to 100 scale, 0 is no effect, 100 is complete control) [10]: 90; Plant response rating, Ryegrass, Italian [11]: 20; Ryegrass, Italian plant response rating (0 to 100 scale, 0 is no effect, 100 is complete control) [11]: 30; Plant response rating, Foxtail, Giant [12]: 90; Foxtail, Giant plant response rating (0 to 100 scale, 0 is no effect, 100 is complete control) [12]: 90; Plant response rating, Ragweed [13]: 0; Ragweed plant response rating (0 to 100 scale, 0 is no effect, 100 is complete control) [13]: 0; Plant response rating, Pigweed [14]: 0; Pigweed plant response rating (0 to 100 scale, 0 is no effect, 100 is complete control) [14]: 0; Plant response rating, Kochia (Kochia (Kochia scoparia) [15]): 0; Kochia plant response rating (0 to 100 scale, 0 is no effect, 100 is complete control) (Kochia (Kochia scoparia) [15]): 20; Plant response rating, Barnyardgrass [16]: 30; Plant response rating, Ducksalad [17]: 90; Plant response rating, Rice (rice (Oryra sativa)): 30; Plant response rating, Sedge, Umbrella [18]: 0
O=C1NCC(c2c(F)cccc2F)C1C(=O)Nc1ccccc1F (racemic) [Compound 515] | 0 | 20 | 0 | 0 | 0 | 0 | 0 | 0 | 0 | 0 | 0 | 0 | 0 | 0 | 0 | 0 | 0 | 0 | 0 | 0 | Plant response rating, Barnyardgrass [10]: 0; Barnyardgrass plant response rating (0 to 100 scale, 0 is no effect, 100 is complete control) [10]: 0; Plant response rating, Ryegrass, Italian [11]: 0; Ryegrass, Italian plant response rating (0 to 100 scale, 0 is no effect, 100 is complete control) [11]: 0; Plant response rating, Foxtail, Giant [12]: 0; Foxtail, Giant plant response rating (0 to 100 scale, 0 is no effect, 100 is complete control) [12]: 70; Plant response rating, Ragweed [13]: 0; Ragweed plant response rating (0 to 100 scale, 0 is no effect, 100 is complete control) [13]: 0; Plant response rating, Pigweed [14]: 0; Pigweed plant response rating (0 to 100 scale, 0 is no effect, 100 is complete control) [14]: 0; Plant response rating, Kochia (Kochia (Kochia scoparia) [15]): 0; Kochia plant response rating (0 to 100 scale, 0 is no effect, 100 is complete control) (Kochia (Kochia scoparia) [15]): 0; Plant response rating, Barnyardgrass [16]: 0; Plant response rating, Ducksalad [17]: 0; Plant response rating, Rice (rice (Oryra sativa)): 0; Plant response rating, Sedge, Umbrella [18]: 0
O=C1NCC(c2ccc(F)cc2F)C1C(=O)Nc1ccc(F)cc1F (racemic) [Compound 518] | 0 | 50 | 0 | 20 | 0 | 0 | 20 | 70 | 0 | 0 | 0 | 0 | 0 | 0 | 0 | 0 | 0 | 0 | 0 | 0 | Plant response rating, Barnyardgrass [10]: 0; Barnyardgrass plant response rating (0 to 100 scale, 0 is no effect, 100 is complete control) [10]: 60; Plant response rating, Ryegrass, Italian [11]: 0; Ryegrass, Italian plant response rating (0 to 100 scale, 0 is no effect, 100 is complete control) [11]: 0; Plant response rating, Foxtail, Giant [12]: 70; Foxtail, Giant plant response rating (0 to 100 scale, 0 is no effect, 100 is complete control) [12]: 90; Plant response rating, Ragweed [13]: 0; Ragweed plant response rating (0 to 100 scale, 0 is no effect, 100 is complete control) [13]: 0; Plant response rating, Pigweed [14]: 0; Pigweed plant response rating (0 to 100 scale, 0 is no effect, 100 is complete control) [14]: 0; Plant response rating, Kochia (Kochia (Kochia scoparia) [15]): 0; Kochia plant response rating (0 to 100 scale, 0 is no effect, 100 is complete control) (Kochia (Kochia scoparia) [15]): 0; Plant response rating, Barnyardgrass [16]: 0; Plant response rating, Ducksalad [17]: 65; Plant response rating, Rice (rice (Oryra sativa)): 0; Plant response rating, Sedge, Umbrella [18]: 0
